# Ends that are not written are not given here.
# Assay: IAM-HPLC, chromatographic hydrophobicity index on an immobilized artificial membrane column
# Format: physicochemical
# Conditions: IAM.PC.DD2 column, gradient 0–85% acetonitrile in 10-mM phosphoric buffer pH 7.4, 30.0 °C; calculated from retention time with calibration curve
# Experimental: All HPLC experiments were carried out using a Prominence-1 LC-2030C 3D HPLC system (Shimadzu, Tokyo, Japan) equipped with an IAM.PC.DD2 column (10 mm × 4.6 mm; particle size 10.0 µm with an IAM guard column; Regis Technologies, Austin Ave, Morton Grove, IL, USA) and diode array detection (DAD). The HPLC system was controlled by LabSolution software (version 5.90, Shimadzu, Japan). The stock solutions of the solutes were diluted to obtain 100-µg/mL concentrations, and the injected volume was 10 µL, which was used for the analytes. The IAM-HPLC analyses were performed with a linear gradient of 0–85% in phase B (where phase A was 10-mM phosphoric buffer at pH 7.4, and phase B was acetonitrile) at a flow rate of 1.5 mL/min. The ultrapure water used for the mobile phase preparation was purified by the Millipore Direct-Q 3 UVWater Purification System (Millipore Corporation, Bedford, MA, USA). The other reagents used for the preparation of the mobile phase: acetonitrile, sodium phosphate dibasic dehydrate, and sodium phosphate monobasic monohydrate (Sigma-Aldrich, Steinheim, Germany) were analytical grade. During the chromatographic analysis, the temperature of the column was constant at 30.0 °C, and the analysis time was 6.5 min. The CHIAM indices of the target solutes were obtained using a calibration set of the reference substances using the protocol developed by Valko and coworkers. The reference substances were purchased, respectively: octanonophenone and butyrophenone acetanilide (Alfa Aesar, Haverhill, MA, USA); acetaminophen, acetophenone, levofloxacin, and ciprofloxacin (Sigma-Aldrich, Steinheim, Germany); and heptanophenone, hexanophenone, valerophenone, propiophenone, and acetophenone (Acros Organic, Pittsburg, PA, USA). Figure 2 presents a correlations plot of the CHIIAM indices of the model substances and experimentally determined retention times.
row,Compound,CHIIAM
1,O=C(O)c1cn(C2CC2)c2cc(N3CCNCC3)c(F)cc2c1=O [Ciprofloxacin],19.70
2,C[C@H]1COc2c(N3CCN(C)CC3)c(F)cc3c(=O)c(C(=O)O)cn1c23 [Levofloxacin],24.88
3,"DVIKKVASVIG-NH2 [(4–14) Citropin, analog of citropin 1.1]",27.85
4,"DVIKKVASVIGGL-NH2 [(4–16) Citropin, analog of citropin 1.1]",38.24
5,"GLFDVIK-NH2 [(1–7) Citropin, analog of citropin 1.1]",42.15
6,"GLFDVIKASVIGGL-NH2 [(1–7)–(10–16) Citropin, analog of citropin 1.1]",37.09
7,"GLFDVVIGGL-NH2 [(1–5)–(12–16) Citropin, analog of citropin 1.1]",28.66
8,"KVASVIGGL-NH2 [(8–16) Citropin, analog of citropin 1.1]",45.95

# Assay: not given
# Design: method as in PMID 10906732, PMID 27084527
# Conditions: model substances of the IAM-HPLC calibration curve, protocol of Valko and coworkers ref 13, 14; cited from earlier work
row,Compound,CHIIAM of calibration set reference substances
1,CC(=O)c1ccccc1 [acetable],17.20
2,CC(=O)Nc1ccc(O)cc1 [acetaminophen],2.90
3,CC(=O)Nc1ccccc1 [acetanilidine],11.50
4,CCCC(=O)c1ccccc1 [butyrophenone],32.00
5,CCCCCCC(=O)c1ccccc1 [heptanophenone],45.70
6,CCCCCC(=O)c1ccccc1 [hexanophenone],41.80
7,CCCCCCCC(=O)c1ccccc1 [octanophenone],49.4
8,CCC(=O)c1ccccc1 [propiohenone],25.90
9,CCCCC(=O)c1ccccc1 [valerophenone],37.30

# From publication PMC8532876, “Can Immobilized Artificial Membrane Chromatography Support the Characterization of Antimicrobial Peptide Origin Derivatives?” (Antibiotics, 2021)
